Data reported in patent US10858305B2, “Perillyl alcohol-3-bromopyruvate conjugate and methods of treating cancer” (NeOnc Technologies, Inc., priority 2016, dated 2020).
Entries after “also recorded” stand apart in the source; their conditions may differ. Where two headings read alike, the source gives them in different places.

Key:
[1] = tested on: HCT116 colon cancer cells; assay: LDH release assay in HCT116 cells; format: cell-based; conditions: Homo sapiens, HCT-116; HCT116, 16 hours; read-out: half-maximal effect, LDH assay
Method: (A) MTT assay was performed after 24 hours. […] (B) LDH assay was performed after […]. LDH release by untreated cells was set to 1. Relative fold increase is shown (n=3).
The capacity for rapid cell killing by NEO218 relative to 3-BP, POH and 3-BP+POH was evaluated via LDH assay, where LDH release is used as a proxy for cell death.
In FIG. 4, Panels (a) and (b), show the results of treating breast cancer cell lines with increasing concentrations of NEO218, 3-BP, or 3-BP mixed with POH. […] In all cases a-d, the release of LDH (as a marker of cell death) was measured after 24 hours.
Depending on the cell line, 2000 to 4000 cells per well were seeded in a volume of 50 μL into a 96-well plate. The next day, drugs ere added in an additional 50 μL of medium. At different time points (usually after 24 hours of incubation), 50 μL medium was removed and processed with the LDH Cytotoxicity Assay Kit (Thermo Fisher Scientific, Waltham, Mass.) according to the manufacturer's instructions. This kit measures extracellular LDH in culture medium using an enzymatic reaction that results in a red formazan product, which can be measured spectrophotometrically. The absorbance was measured at 490 and 680 nm. All LDH levels were normalized to untreated controls and presented as fold change of the controls.

[2] = tested on: all cell types (breast, brain, ovary, colon cancer cell lines); assay: Summary of cytotoxicity over MTT, LDH and colony formation assays (FIGS. 2-5); format: cell-based, human; conditions: for IC50: Homo sapiens
Text: The tumor cell-killing potency of NEO218 was characterized by in vitro, short-term MTT assays (measuring viability of cells via determination of metabolic activity), LDH assays (measuring the release of lactate dehydrogenase as an indicator of leaky cell membranes, which are indicative of dying cells), and colony-formation assays (CFA, which determine long-term survival of drug-treated cells and their ability to spawn a colony of descendants). Several established cell lines derived from cancers of the breast were used as target cells (including MDA-MB-231; MDA-MB-468; T47D; MCF7; MCF7/Dox; BTB12), brain (T98G; U251), ovary (A2780), and colon (HCT116). In all cases, cells in culture were exposed to increasing concentrations of agents for 24 or 48 hours.

[3] = tested on: cleaved caspase 7, cleaved PARP, γ-H2AX in MCF7, MDA-MB-231 and HCT116 cells; assay: Western blot for apoptosis markers; format: cell-based, human; conditions: STS as positive control
Method: (A) FACS analysis of HCT116 cells after treatment for 2, 4, or 8 hours with vehicle, 30 μM 3-BP, 30 μM NEO218, or 1 μM staurosporine (STS). […] (B) Western blot analysis of apoptotic markers. In the top section, MDA-MB-231 cells were treated with 30 μM NEO218 or 1 μM STS for various time points. In the lower section, HCT116 cells were treated with the indicated concentrations of 3-BP, NEO218, or STS for 16 hours. In all cases cell lysates were prepared and analyzed for the well-established apoptotic markers cleaved PARP, cleaved (i.e., activated) caspase 7 (cl. C-7), and phosphorylated (i.e., active) H2AX. Actin was used as a loading control. (C) HCT116 cells were pretreated with 50 μM Z-VAD-FMK for one hour, followed by the addition of increasing concentrations of 3-BP or NEO218. Cell viability was determined by MTT assay 24 hours later. Data points are averages from n=3.
The capacity for NEO218 to induce apoptosis was evaluated in a series of experiments. Three different cell lines were treated 3-BP and NEO218. Drug-treated cells were harvested, and cellular lysates were analyzed by Western blot for the presence of the three well-established markers of apoptosis: • cleaved caspase 7 (cl. C7); • cleaved (cl.) vs. full-length (f.l.) PARP; and, • induction of γ-H2AX (which indicates DNA cleavage).
The appearance of cl. C7 and cl. PARP is indicative of ongoing apoptotic processes. In all cases, lysates were also probed for the presence of actin as a control.
Two breast cancer cell lines (MCF7 and MDA-MB-231) and one colon cancer cell line (HCT116) were treated with increasing concentrations of NEO218 or 3-BP. As a control, they were also treated with staurosporine (STS), a known potent inducer of apoptosis. Western blot analyses for the presence of apoptosis markers are shown in the left panels of FIG. 6.
Total cell lysates were analyzed by Western blot analysis as described earlier. Primary antibodies against cleaved caspase 7 and PARP were obtained from Cell Signaling Technology (Danvers, Mass.), and antibodies against actin (C-11) and MCT1 (H-1) were obtained from Santa Cruz Biotechnology (Santa Cruz, Calif.). All antibodies were used according to the manufacturers' recommendations, except that in the case of MCT1 detection, the boiling step was omitted before loading the samples onto the polyacrylamide gel. All immunoblots were repeated at least once to confirm the results.

[4] = tested on: HCT116 cells transfected with MCT-1 siRNA or scrambled control; assay: MTT assay in HCT116 cells after siRNA knockdown of MCT-1; format: cell-based; conditions: Homo sapiens
Method: HCT116 cells were transfected with siRNA targeted at MCT-1 (circles), or with a scrambled control (diamonds). (A) Cellular sensitivity to 3-BP and NEO218 was determined by MTT assay. Dotted lines and arrow show the shift in IC50. Note pronounced shift to the right in 3-BP-treated cells (left, panel), compared to a minor shift to the left in NEO218-treated cells (right panel). (B) Knockdown of MCT-1 protein levels was confirmed by Western blot analysis with actin as the loading control. (C) MCT-1 knockdown was also confirmed at the individual cell level by immunocytochemistry. The two photos were similarly overexposed in order to emphasize the pronounced difference in MCT-1 levels.
Methylthiazoletetrazolium (MTT) assays were performed as described earlier.
All siRNAs were purchased from Qiagen, Valencia, Calif. To knock down MCT1 expression, we used siRNA Hs_SLC16A1_6 (target sequence: 5′-[…]-3′). As a non-silencing control, we used AllStars Negative Control siRNA, which lacks homology to any known mammalian gene. One hundred thousand cells per well of a 6-well plate were transfected with 50 nM siRNA using jetPRIME transfection reagent and buffer (Polyplus Transfection, New York, N.Y.). Medium was changed after 24 hours and cells were subjected to experiments 72 hours after transfection. 2.10. Immunoblots

[5] = tested on: HCT116 cells; assay: cells; conditions: Homo sapiens; for IC50: HCT-116, 24 h, read-out: half-maximal effect, MTT assay
Method: (A) MTT assay was performed after 24 hours. Viability of untreated cells was set at 100% (n=3).
Methylthiazoletetrazolium (MTT) assays were performed as described earlier [38]. Briefly, cells were seeded into 96-well plates at 2.0 to 8.0×10^3 cells per well and exposed to drug treatment (or solvent alone) for 24 or 48 hours. In individual experiments, each treatment condition was set up in triplicate, and each experiment was repeated several times independently.

[6] = all cell types, FIGS. 2-5, read-out: IC50 (ability of a drug to reduce cell survival by 50%)

C=C(C)[C@@H]1CC=C(COC(=O)C(=O)CBr)CC1 [NEO218, 3-bromo-2-oxo-propionic acid 4-isopropenyl-cyclohex-1-enylmethyl ester]
EC50 [1]: ~8 µM
IC50 [2, 6]: 5 to 30 µM
killing of drug-resistant cells ([2]; T98G (TMZ-resistant) and MCF7/Dox (multi-drug-resistant) cells): effectively killed
induction of apoptosis markers (cleaved PARP, cleaved caspase 7, γ-H2AX) [3]: responded only minimally, if at all; also recorded: barely affects these same markers
IC50 ([4]; HCT-116, HCT116, MCT-1 siRNA knockdown, read-out: IC50 (MTT)): 15 µM
IC50 ([4]; HCT-116, HCT116, scrambled control siRNA, read-out: IC50 (MTT)): 19 µM
IC50 [5]: ~18 µM

O=C(O)C(=O)CBr [3-BP, 3-bromopyruvate]
EC50 [1]: ~8 µM
IC50 [2, 6]: 10 to 200 µM
IC50 ([2]; cell types in which 3-BP is not similarly potent, read-out: concentrations required for cell death in less sensitive cell types): > 200 µM
induction of apoptosis markers (cleaved PARP, cleaved caspase 7, γ-H2AX) [3]: responded only minimally, if at all
IC50 ([4]; HCT-116, read-out: IC50 (MTT), HCT116, MCT-1 siRNA knockdown): 67 µM
IC50 ([4]; HCT-116, read-out: IC50 (MTT), HCT116, scrambled control siRNA): 20 µM
IC50 [5]: ~18 µM
cytotoxicity at 40 µM ([5]; HCT-116, read-out: reduction of apparent viability in MTT assay): 75%
